# Patent publication US12173349B2, “Lung protease nanosensors and uses thereof” (Massachusetts Institute of Technology, priority 2018, dated 2024)
# Entries after “also recorded” stand apart in the source; their conditions may differ. Where no end group is shown, it is not given here. [ ]: non-standard residue; d: D form. F+10 = not defined here; A+4 = not defined here; G+2 = not defined here; G+3 = not defined here
# Columns and labels:
# PA01 supernatant = test: cleavage of FRET-paired substrates by bacterial supernatant; format: biochemical, Pseudomonas aeruginosa; details: added to PA01 supernatant
# Description: The specificity of LAS and ELA for P. aeruginosa cleavage was tested by collecting supernatants from PA01 or Staphylococcus aureus cultures and incubating them with FRET-paired substrates LAS-Q and ELA-Q in 384 well plates. […] To investigate whether the LAS and ELA substrates are also susceptible to cleavage by host proteases, each was incubated with recombinant mouse proteases.
# Supernatant from PA01 and S. aureus were collected and added to substrates in 384 well plates and dequenching of FAM was monitored at 37° C. (Tecan). Fluorescence change at 30 minutes was reported. For recombinant protease assays, enzyme was added to the substrates in enzyme-specific buffer (MMP7 & 9 buffer: 50 mM Tris, 150 mM NaCl, 5 mM CaCl2), […], pH 7.5; Thrombin: PBS; NE: 100 mM HEPES, 500 mM NaCl, 0.05% Tween 20) in a 384 well plate for time-lapse fluorimetry to measure dequenching at 37° C. (Tecan).
# [1] = system: P. aeruginosa strain PA01 lung infection; test: histology and immunofluorescence of lung sections after antibiotic treatment; format: in vivo, mice
# Description: To test whether inflammation remained after antibiotic therapy, histological and immunofluorescence analysis of lung sections were performed from infected and treated mice. […] The robust diagnostic capability of ELA to identify infection but poor ability to monitor treatment, paired with the robust ability for LAS to specifically monitor treatment highlights the importance of multiplexing and measuring both host and pathogen factors.
# Individual responses to antimicrobial treatment can be highly variable, dependent upon the strain of pathogen and the presence of antibiotic resistance, and current clinical tests take 24-72 hours to identify antibiotic susceptibility (Caliendo et al., Clin Infect Dis, 57, S139, 2013). In addition, current clinical tests used to visualize lung infections (e.g., chest X-ray and computed tomography) are often unable to distinguish active infections from those that have been adequately treated until several weeks after antibiotic therapy is complete, because the airspace opacifications characteristic of pneumonia remain apparent on routine radiography screens (Bruns et al., J Gen Intern Med, 25, 203, 2010). Therefore, the ability of the infection-tracking ABNs to identify successful versus insufficient treatment on an acute time-scale shortly after therapeutic initiation was sought to be evaluated. Only 5 hours after establishing lung infections with PA01, antibiotic treatment was initiated with either ciprofloxacin (efficacious against P. aeruginosa) or doxycycline (ineffective against gram-negative bacteria including P. aeruginosa) (FIG. 13A). The following day, multiplexed LAS-E and ELA-E ABNs were administered and urine was collected. […] The persistent Pseudomonas immunostaining observed following ciprofloxacin treatment might be derived from residual Pseudomonas antigens remaining from lysed bacteria that had not yet been cleared by the immune system. Alternatively, the reduced LAS sensor reading in these treated mice could reflect a suppression of LasA secretion from bacteria as they are killed by the potent antibiotic.
# All animal studies were approved by Massachusetts Institute of Technology's Committee on Animal Care. For infection studies, 5-7 week old female CD-1 mice were innoculated intratracheally with 1.25×10^6 CFU of P. aeruginosa strain PA01 in 50 μL of PBS. Bacteria were cultured overnight in LB broth, then subcultured and grown to log phase (OD600≈0.5). Bacteria were pelleted, washed with sterile PBS, and then resuspended to the requisite concentration for intratracheal administration. Mice were administered buprenorphine and meloxicam several hours after infection. For antibiotic treatment studies, mice were injected intraperitoneally with 40 mg/kg ciprofloxacin or 30 mg/kg doxycycline twice per day for up to 6 days.
# Animals were perfused with PBS followed by 10% formalin solution. The lungs were resected and fixed in formalin before paraffin embedding and sectioning. […] Fluorescence images were acquired on a Perkin Elmer Pannoramic250. Quantification of neutrophil signal was completed by capturing 3-5 representative fields from each stained lung section and counting positive cells. Quantification of pseudomonas signal was completed by capturing 3-5 representative fields from each stained lung section and measuring total positive area after uniform thresholding of each single-channel fluorescence image (ImageJ).
# [2] = system: Kras and p53 mutant lung adenocarcinoma (KP mice); test: urinary ABN readout and random forest classification in KP lung adenocarcinoma model; format: in vivo
# Description: To characterize ABN performance in vivo, 14 protease-sensitive ABNs were administered to KP mice and healthy, age and sex-matched controls at 5, 7.5 and 10.5 weeks after tumor initiation. Mouse bladders were voided one hour after intrapulmonary delivery and all fresh urine produced during the subsequent hour (from 60-120 minutes after administration) was pooled and collected. LC-MS/MS was performed and peak area ratios (defined as peak area of urinary reporter divided by peak area of spiked-in internal standard) of protease-sensitive reporters were mean-normalized within each sample to reduce mouse-to-mouse variation.
# A random forest classifier was then sought to be built to enable prospective diagnosis of lung cancer in KP mice. Random forest is a high-performance classifier, applicable to a wide variety of classification tasks, that generates a collection of decision trees (a “forest”) that are sampled to produce classification results (Breiman, Machine Learning 45, 5-32, 2001). A random forest classifier was trained using 50% of control mice at 5 weeks, 7.5 weeks and 10.5 weeks, as well as 50% of KP mice at 7.5 weeks (FIG. 6A). The classifier assigned a probability that each mouse belonged to either the KP cohort or the healthy control cohort (FIG. 6B, “Training” panel), achieving perfect separation of control and KP mice. The classifier was then sought to be tested on an independent validation cohort consisting of classifier-naive KP mice at 5 weeks, 7.5 weeks and 10.5 weeks post-induction, as well as the remaining control mice from each time point.
# Male B6/SV129 Kras^LSL-G12D/+; Trp53^fl/fl (KP) mice between 18 and 30 weeks old were used for lung adenocarcinoma experiments. Tumors were initiated, as described previously (DuPage et al., Nat Protoc 4, 1064-1072 (2009)), by the intratracheal administration of 50 μL of adenovirus-SPC-Cre (2.5×10^8 PFU in Opti-MEM with 10 mM CaCl2)) under isoflurane anesthesia. […] Tumor growth was monitored by micro computed tomography (microCT) imaging (General Electric) and was scored by a blinded radiation oncologist using MicroView (Parallax Innovations) (Table 4). Tumor volumes were calculated by using the ROI sphere/elliptical tool.
# ABN constructs (GluFib-Substrate-PEG-840 kDa) for urinary experiments were synthesized by CPC Scientific (Sunnyvale, CA). ABNs were dosed (50 μL total volume, 20 μM concentration per ABN) by intratracheal intubation, as described above. Bladders were voided 60 minutes after ABN administration and all urine produced 60-120 min after ABN administration was collected using custom tubes in which the animals rest upon 96-well plates that capture urine. Urine was pooled and frozen at −80° C. until analysis by LC-MS/MS.
# Liquid chromatography/tandem mass spectrometry was performed by Syneos Health (Princeton, NJ) using a Sciex 6500 triple quadrupole instrument. Briefly, urine samples were treated with UV irradiation to photocleave the ANP linker and liberate the Glu-Fib reporter from residual peptide fragments. Samples were extracted by solid-phase extraction and analyzed by multiple reaction monitoring by LC-MS/MS to quantify concentration of each Glu-Fib mass variant. Analyte quantities were normalized to a spiked-in internal standard and concentrations were calculated from a standard curve using peak area ratio (PAR) to the internal standard. Mean normalization was performed on PAR values to account for mouse-to-mouse differences in ABN inhalation efficiency and urine concentration.
# Principal component analysis (PCA) was performed on mean normalized PAR values in the R statistical environment (Team, R.C. R, R Foundation for Statistical Computing, Vienna, Austria, 2017) using the prcomp function. Binary classification was performed using the Caret package (Kuhn, M. caret: Classification and Regression Training. (2017)) in the R statistical environment). […]
# [3] = system: 15 proteases in the LUAD protease panel; test: in vitro recombinant protease screen of FRET-paired substrates; format: biochemical; details: fluorescence fold change at 45 minutes; 1 μM substrate, 12.5 nM recombinant enzyme; MP metallo-, SP serine, AP aspartic protease
# Source text: Hundreds of peptide sequences have been previously designed and validated as protease substrates, leveraging known catalytic specificities of different protease families, published datasets and substrate sequences in databases like cutDB and MEROPS (Igarashi et al., Nucleic Acids Res 35, D546-549, 2007; Rawlings et al., Nucleic Acids Res 46, D624-D632, 2018). Fourteen of these substrates were nominated in an effort to cover the specificity profiles of metallo-, serine and aspartic endoproteases, all of which were included in the LUAD protease panel, and the catalytic activity of each protease-substrate pair was characterized. Quenched probes that incorporated the 14 peptide substrates were synthesized such that they fluoresce upon proteolytic cleavage to enable real-time monitoring of protease activity in vitro (FIG. 3A and Table 2). Each probe was incubated with each protease in the panel and fluorescence was monitored over 45 minutes. Shown are sample kinetic plots monitoring dequenching of the 14 FRET-paired probes when incubated with (above) and without (below) recombinant matrix metalloproteinase 3 (MMP3) (FIG. 3B). […] See also FIG. 19.
# Fluorogenic protease substrates were synthesized by CPC Scientific. Recombinant proteases were purchased from Enzo Life Sciences, R&D Systems and Haematologic Technologies. For recombinant protease assays, fluorogenic substrates PPQ1-14 (1 μM final concentration) were incubated in 30 μL final volume in appropriate enzyme buffer, according to manufacturer specifications, with 12.5 nM recombinant enzyme at 37° C. (FIG. 3). Proteolytic cleavage of substrates was quantified by increases in fluorescence over time by fluorimeter (Tecan Infinite M200 Pro). Enzyme cleavage rates were quantified as relative fluorescence increase over time normalized to fluorescence before addition of protease. Hierarchical clustering was performed in GENE-E, using fluorescence fold changes at 45 minutes.
# [4] = 24 hours post-infection, after 19 hours of antibiotic therapy
compound,measurement,setting,value
"[Cl-].[Cl-].[Zn+2] [ZnCl2, reference compound]",effect on cleavage signal of LAS-Q and ELA-Q,PA01 supernatant,suppressed the cleavage signal
O=C(O)c1cn(C2CC2)c2cc(N3CCNCC3)c(F)cc2c1=O [ciprofloxacin],decrease of Pseudomonas immunofluorescent signal compared to the doxycycline-treated group,[1]; [4],~60%
same,lung inflammation and neutrophils,[1]; [4],marked lung inflammation and elevated neutrophils
same,Pseudomonas immunofluorescence signal in lungs of infected mice relative to uninfected or ciprofloxacin-treated mice,"[1]; 4 day course of ciprofloxacin, 40 mg/kg intraperitoneally twice per day",7-9 fold
same,Pseudomonas in lung sections after treatment,[1]; histology and immunofluorescent staining after ciprofloxacin course,no Pseudomonas
same,decrease in neutrophil count in lungs after antibiotic treatment,[1]; relative to infected mice,~30%
"PP03: ABN: reporter e(+3G)(+1V)ndneeGFFs(+4A)r, ANP, substrate PVPLSLVM, nanocarrier PEG8-40 kDa (chain 1 [dE]G[+1V][dN][dD][dN][dE][dE]GFF[dS][+4A][dR]; not fully specified (some residues); printed as PP03: ABN: reporter e(+3G)(+1V)ndneeGFFs(+4A)r, ANP, substrate PVPLSLVM, nanocarrier PEG8-40 kDa; also: ANP photolabile linker, PEG8-40 kDa nanocarrier, linkage of reporter, ANP, substrate and carrier not given here)",urinary reporter enrichment relative to healthy controls,[2]; KP7.5 wk urine,enriched
same,urinary reporter enrichment relative to healthy controls,[2]; KP10.5 wk urine,enriched
same,protease class(es) cleaving the substrate in vitro,[3],metalloproteases or both metalloproteases and aspartic proteases
"PP09: ABN: reporter eGVndneeGF(+10F)s(+4A)r, ANP, substrate KPISLISSG, nanocarrier PEG8-40 kDa (chain 1 [dE]GV[dN][dD][dN][dE][dE]GF[+10F][dS][+4A][dR]; also: ANP photolabile linker, PEG8-40 kDa nanocarrier, linkage of reporter, ANP, substrate and carrier not given here)",urinary reporter enrichment relative to healthy controls,[2]; KP7.5 wk urine,enriched
same,urinary reporter enrichment relative to healthy controls,[2]; KP10.5 wk urine,enriched
same,protease class(es) cleaving the substrate in vitro,[3],metalloproteases or both metalloproteases and aspartic proteases
"PP11: ABN: reporter e(+3G)(+1V)ndnee(+2G)(+10F)Fs(+4A)r, ANP, substrate SGSKIIGGG, nanocarrier PEG8-40 kDa (chain 1 [dE][G+3][V+1][dN][dD][dN][dE][dE][G+2][F+10]F[dS][A+4][dR]; reading uncertain; also: ANP photolabile linker, attachment not given here, PEG8-40 kDa nanocarrier, attachment not given here, how reporter and substrate are joined not given here, printed as PP11: ABN: reporter e(+3G)(+1V)ndnee(+2G)(+10F)Fs(+4A)r, ANP, substrate SGSKIIGGG, nanocarrier PEG8-40 kDa)",urinary reporter enrichment relative to healthy controls,[2]; KP10.5 wk urine,most significantly enriched
same,protease class(es) cleaving the substrate in vitro,[3],serine protease-sensitive; also recorded: only by serine proteases
